Reference: patent publication US20240161653A1, “IN VITRO MODEL DEVICE FOR PLACENTAL BARRIER” (CFD Research Corporation, priority 2022, published 2024)
Structures can show the parent of a compound that is named as a salt.

Key:
[1] = test system: placental barrier of the in vitro placenta device (coculture of Bewo trophoblasts and HUVEC); assay: Maternal-placental size exclusion permeability assay in the in vitro placenta device; format: in vitro ADME, human; conditions: injected into maternal vascular channel at 0.1 μL/min for 1 hour; PI = ratio of sum ROIs trophoblast to maternal vascular channel; FIG. 9B
Experimental: Again, devices can be placed in the incubator.
In another example, one embodiment of the present invention was used to evaluate maternal-placental size exclusion, where a fluorescein sodium salt (FSS) solution was injected into the maternal vascular channel at 0.1 μL/min for 1 hour. […] PI was expected to decrease as a function of compound molecular weight.

[2] = test system: intervillous space-trophoblast barrier; assay: Morphological effects of toxic exposure in the in vitro placenta device; format: cell-based; conditions: injected into maternal channel at 3 μL/min for 4 min, then incubated at 37° C. for 15 min; FIG. 10
Description: In some embodiments, the in vitro placental model device can be used for studying toxicity of test agents to the placenta. Certain compounds not only induce fetal toxicity upon crossing the placental barrier, but also disrupt the barrier itself. The microfluidic placental barrier model can be used to study response to toxic exposure of test agents. The impact to barrier function can be assessed through permeability comparisons and toxicity (e.g., cytotoxicity, etc.) can be assessed off chip by various methods (e.g., cell lysate luminescence assay, genomic analysis, etc.).
For example, an in vitro placenta device was exposed to trypan blue by injection into the maternal channel at 3 μL/min for 4 min and then incubated at 37° C. for 15 min, similar to protocols in literature^7.8. […] White arrows show barrier degradation, and dark arrows show apoptosis following trypan blue exposure.

[3] = test system: trophoblast channel cells; assay: Cytotoxicity by adenylate kinase release (luminescence), samples from trophoblast channel; format: cell-based; conditions: luminescence plate reader, FIG. 11
Experimental: Following exposure, FSS was injected into the maternal channel and permeability assayed. Permeability in the devices was 10-fold higher in trypan blue treated devices compared to controls. An additional assay was performed to determine cytotoxicity as it relates to the release of adenylate kinase. A positive control (100% death by lysis buffer) and a negative control (media only) were included for comparison. Samples were taken from the trophoblast channel and placed in a low volume, white walled […] plate for luminescence analysis using a plate reader. […] The increase in AK release in arbitrary luminescence units compares the toxic exposure of trypan blue to positive and negative controls.

For O=C1OC2(c3ccc(O)cc3Oc3cc(O)ccc32)c2ccccc21 [FSS, fluorescein sodium salt], the “increase in average PI compared to 4 kD TRITC-dextran” value [1] was about 2 fold.

In the case of Cc1cc(-c2ccc(/N=N/c3c(S(=O)(=O)O)cc4cc(S(=O)(=O)O)cc(N)c4c3O)c(C)c2)ccc1/N=N/c1c(S(=O)(=O)O)cc2cc(S(=O)(=O)O)cc(N)c2c1O [trypan blue], the “morphological effects of exposure at the intervillous space-trophoblast barrier” value [2] is reported as “evidence of barrier degradation (e.g., cell death and detachment) and apoptosis” and the “increase in adenylate kinase release” value [3] is reported as 1.5 fold.
